Measurements reported in publication PMC10527514 (Gastroenterology, 2023).

Assays:
Type in all cases: cell-based
PPARα = target: T1, PPARα (Homo sapiens, UniProt Q07869); assay: PathHunter nuclear hormone receptor cell assay, chemiluminescence
T1 sequence (Q07869 1-468): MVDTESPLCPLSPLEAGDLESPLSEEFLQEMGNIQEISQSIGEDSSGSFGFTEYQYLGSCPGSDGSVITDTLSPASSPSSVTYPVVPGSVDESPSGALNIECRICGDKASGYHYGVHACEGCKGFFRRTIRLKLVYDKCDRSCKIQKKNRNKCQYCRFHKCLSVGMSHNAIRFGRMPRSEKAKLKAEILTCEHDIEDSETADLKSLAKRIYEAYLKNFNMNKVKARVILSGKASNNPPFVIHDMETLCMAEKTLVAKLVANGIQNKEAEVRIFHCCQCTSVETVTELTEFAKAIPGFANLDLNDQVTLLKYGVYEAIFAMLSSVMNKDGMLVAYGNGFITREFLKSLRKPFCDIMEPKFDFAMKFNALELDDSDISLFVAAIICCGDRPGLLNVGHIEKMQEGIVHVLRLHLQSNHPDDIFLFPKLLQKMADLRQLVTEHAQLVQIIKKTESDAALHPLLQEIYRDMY

PPARγ = target: T2, PPARγ (Homo sapiens, UniProt P37231); assay: as above
T2 sequence (P37231 1-505): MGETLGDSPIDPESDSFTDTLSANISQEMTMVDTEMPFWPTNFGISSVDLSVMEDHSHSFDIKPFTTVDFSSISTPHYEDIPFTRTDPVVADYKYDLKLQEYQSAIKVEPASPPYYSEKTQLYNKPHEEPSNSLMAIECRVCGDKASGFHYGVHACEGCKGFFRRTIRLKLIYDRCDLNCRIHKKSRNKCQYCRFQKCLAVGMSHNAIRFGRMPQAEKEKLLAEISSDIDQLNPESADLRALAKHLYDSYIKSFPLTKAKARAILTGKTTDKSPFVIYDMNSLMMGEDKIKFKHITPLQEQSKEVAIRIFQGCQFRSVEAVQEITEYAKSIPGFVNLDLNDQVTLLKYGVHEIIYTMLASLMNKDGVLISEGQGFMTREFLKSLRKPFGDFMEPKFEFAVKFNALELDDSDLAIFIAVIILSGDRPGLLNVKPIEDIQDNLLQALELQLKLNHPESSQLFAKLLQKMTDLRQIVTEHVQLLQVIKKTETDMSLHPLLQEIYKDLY

GPR84 = GPR84 (Homo sapiens, UniProt Q9NQS5); assay: Hit Hunter cAMP assay in cAMP Hunter cells
Sequence of GPR84 (Q9NQS5 whole entry): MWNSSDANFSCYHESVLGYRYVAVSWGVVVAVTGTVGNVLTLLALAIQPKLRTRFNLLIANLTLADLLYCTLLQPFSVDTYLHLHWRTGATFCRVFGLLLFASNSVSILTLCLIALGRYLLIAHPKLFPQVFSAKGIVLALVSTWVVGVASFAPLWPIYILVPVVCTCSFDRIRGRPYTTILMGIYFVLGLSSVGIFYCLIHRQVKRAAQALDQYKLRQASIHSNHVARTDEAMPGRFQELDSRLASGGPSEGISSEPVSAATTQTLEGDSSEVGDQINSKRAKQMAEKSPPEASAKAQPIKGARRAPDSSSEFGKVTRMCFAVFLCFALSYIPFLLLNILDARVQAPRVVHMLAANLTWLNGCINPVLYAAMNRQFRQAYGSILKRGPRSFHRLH

EC50 (PPARα): 4.4 µM | EC50 (PPARγ): 40 µM | EC50 (GPR84): 12 µM
SMILES: CCCCCOc1cccc(C(=O)O)c1C [SEFA-6179]
